Laboratory results published in patent US20240398694A1, “SKINCARE COMPOSITION CONTAINING SHATAVARI EXTRACT” (Bangkok Lab and Cosmetic Public Company Limited, priority 2023, published 2024).
Values joined by “and” are separate entries in the source; they are usually repeats but may differ in a detail not shown here. Equal entries are not always repeated. Where two headings read alike, the source gives them in different places.

What was measured:
[1] = test system: prostate cancer cells DU-145; conditions: human
From the text: (§1) Prostate cancer cells are the representatives of the study of 5α-reductase inhibition activity due to the production of 5α-reductase in prostate cancer cells.

[2] = test system: 5α-reductase; assay: 5α-reductase inhibition activity in prostate cancer cells DU-145; type: cell-based, human; conditions: FIG. 5, lanes 3 and 4 vs control lane 2
From the text: as §1

[3] = applying 10% vitamin C; cited from earlier work
[4] = Free-radical nitric oxide binding using Griess reagent; conditions: triplicate
From the text: (§2) These are used in free-radical binding studies by the DPPH method and in free-radical nitric oxide binding using Griess reagent.

[5] = Free-radical DPPH binding study
From the text: From the free-radical DPPH binding study, Shatavari extract has an SC50 of 5.92+0.03 milligrams per milliliter. […] Also, the free-radical DPPH binding activity of non-diluted Shatavari extract is 91.15+0.97%.
as §2

[6] = test system: breast cancer cells MCF7; assay: Estrogen hormone stimulation activity: % survival of breast cancer cells MCF7; type: cell-based, human
From the text: Breast cancer cells are the representatives of the study of estrogen receptor stimulation activity because breast cancer cells are responsible for estrogen hormone.

CC(C)(C)NC(=O)[C@H]1CC[C@H]2[C@@H]3CC[C@H]4NC(=O)C=C[C@]4(C)[C@H]3CC[C@]12C [finasteride]
highest concentration non-cytotoxic to prostate cancer cells DU-145 [1]: 10 micrograms per milliliter | % Survival of prostate cancer cells DU-145 (means ± S.D.) ([1]; 0.01 μg/mL): 100.19% | % Survival of prostate cancer cells DU-145 (means ± S.D.) ([1]; 0.1 μg/mL): 99.75% | % Survival of prostate cancer cells DU-145 (means ± S.D.) ([1]; 1 μg/mL): 94.89% | % Survival of prostate cancer cells DU-145 (means ± S.D.) ([1]; 100 μg/mL): 0% | agarose gel band of 5α-reductase DNA (700-bp fragment) from treated DU-145 cells [2]: faded

O=C1O[C@H]([C@@H](O)CO)C(O)=C1O [vitamin C, L-ascorbic acid]
reduction of sunburn [3]: 40-60% | reduction of the skin's redness from UVB exposure [3]: 52% | IC50 of free-radical nitric oxide binding [4]: 0.84 ± 0.02 milligrams per milliliter | SC50 (IC50) of free-radical DPPH binding [5]: 0.02 ± 0.01 milligrams per milliliter

C[C@]12CC[C@@H]3c4ccc(O)cc4CC[C@H]3[C@@H]1CC[C@@H]2O [β-estradiol]
% survival of breast cancer cells MCF7 (means ± S.D.) ([6]; concentration 0.1 μg/mL): 92.14% | % survival of breast cancer cells MCF7 (means ± S.D.) ([6]; concentration 1 μg/mL): 101.82% | % survival of breast cancer cells MCF7 (means ± S.D.) ([6]; concentration 10 μg/mL): 98.84% | % survival of breast cancer cells MCF7 (means ± S.D.) ([6]; concentration 100 μg/mL): 96.53% | % survival of breast cancer cells MCF7 (means ± S.D.) ([6]; concentration 1,000 μg/mL): 107.2% and 107.20 ± 5.37%
